Columns and labels:
[1] = Inhibition of Candida albicans AHAS catalytic subunit using pyruvate as substrate measured after 30 mins by colorimetric method
[2] = system: Candida albicans; experiment: Antifungal activity against Candida albicans SC5314 cultured in RPMI 1640 media after 24 hrs by broth microdilution method; type: functional; conditions: SC5314, 24 h
[3] = system: Candida albicans; experiment: Antifungal activity against Candida albicans SC5314 cultured in YNB media after 24 hrs by broth microdilution method; type: functional; conditions: SC5314, 24 h

SMILES	Ki [1]	pKi [1]	MIC [2]	MIC [3]
Cc1cc(C)nc(NC(=O)[N-]S(=O)(=O)Oc2ccccc2OCCI)n1.[Na+]	3.57 µM	5.45	> 100 mg/L	> 100 mg/L
COc1cc(OC)nc(NC(=O)[N-]S(=O)(=O)Oc2ccccc2C(=O)OCCI)n1.[Na+]	0.095 µM	7.02	> 100 mg/L	> 100 mg/L
COc1cc(Cl)nc(NC(=O)[N-]S(=O)(=O)Oc2ccccc2C(=O)OC(C)C)n1.[Na+]	4.56 µM	5.46	> 100 mg/L	> 100 mg/L
COC(=O)c1ccccc1S(=O)(=O)NC(=O)Nc1nccc(C)n1 [MONOSULFURON ESTER]	16.8 µM	–	–	–
COC(=O)c1ccccc1OS(=O)(=O)[N-]C(=O)Nc1nc(Cl)cc(OC)n1.[Na+]	0.055 µM	7.26	> 100 mg/L	> 100 mg/L
COc1cc(C)nc(NC(=O)[N-]S(=O)(=O)Oc2ccccc2C(=O)OCCI)n1.[Na+]	0.61 µM	6.21	> 100 mg/L	> 100 mg/L
COc1cc(Br)nc(NC(=O)[N-]S(=O)(=O)Oc2ccccc2C(=O)OC(C)C)n1.[Na+]	1.51 µM	5.82	> 100 mg/L	> 100 mg/L
Cc1cc(C)nc(NC(=O)[N-]S(=O)(=O)Oc2ccc([N+](=O)[O-])cc2)n1.[Na+]	5.66 µM	5.24	> 100 mg/L	> 100 mg/L
COc1cc(Br)nc(NC(=O)[N-]S(=O)(=O)Oc2ccccc2OCCCl)n1.[Na+]	0.069 µM	7.13	> 100 mg/L	> 100 mg/L
CCOC(=O)c1ccccc1OS(=O)(=O)[N-]C(=O)Nc1nc(Cl)cc(OC)n1.[Na+]	0.0075 µM	8.12	> 100 mg/L	40 mg/L
Cc1cc(Cl)nc(NC(=O)[N-]S(=O)(=O)Oc2ccccc2C(=O)OC(C)C)n1.[Na+]	22.9 µM	4.64	> 100 mg/L	> 100 mg/L
COC(=O)c1ccccc1OS(=O)(=O)[N-]C(=O)Nc1nc(Br)cc(OC)n1.[Na+]	0.643 µM	6.28	> 100 mg/L	> 100 mg/L
CCOC(=O)c1ccc(OS(=O)(=O)[N-]C(=O)Nc2nc(C)cc(Cl)n2)cc1.[Na+]	> 50 µM	–	> 100 mg/L	> 100 mg/L
CCCOC(=O)c1ccccc1OS(=O)(=O)[N-]C(=O)Nc1nc(Br)cc(OC)n1.[Na+]	0.758 µM	6.16	> 100 mg/L	> 100 mg/L
Cc1cc(Cl)nc(NC(=O)[N-]S(=O)(=O)Oc2ccccc2OCCCl)n1.[Na+]	0.095 µM	7.02	> 100 mg/L	> 100 mg/L
COc1cc(C)nc(NC(=O)[N-]S(=O)(=O)Oc2ccccc2C(=O)OCC(F)(F)F)n1.[Na+]	0.31 µM	6.51	> 100 mg/L	20 mg/L
CCOC(=O)c1ccccc1OS(=O)(=O)[N-]C(=O)Nc1nc(I)cc(OC)n1.[Na+]	0.0115 µM	7.91	100 mg/L	10 mg/L
COc1cc(OC)nc(NC(=O)[N-]S(=O)(=O)Oc2ccccc2C(=O)OCC(F)(F)F)n1.[Na+]	0.078 µM	7.11	> 100 mg/L	10 mg/L
Cc1cc(C)nc(NC(=O)[N-]S(=O)(=O)Oc2ccccc2C(=O)OC(C)C)n1.[Na+]	9.84 µM	5	> 100 mg/L	> 100 mg/L
COc1cc(Cl)nc(NC(=O)[N-]S(=O)(=O)Oc2ccccc2OCCI)n1.[Na+]	0.583 µM	6.23	> 100 mg/L	> 100 mg/L
COc1cc(Br)nc(NC(=O)[N-]S(=O)(=O)Oc2ccccc2[N+](=O)[O-])n1.[Na+]	0.247 µM	6.6	> 100 mg/L	> 100 mg/L
COc1cc(I)nc(NC(=O)[N-]S(=O)(=O)Oc2ccccc2C(=O)OCCCl)n1.[Na+]	0.74 µM	6.13	> 100 mg/L	> 100 mg/L

SMILES	Ki [1]	pKi [1]	MIC [2]	MIC [3]
CCOC(=O)c1cccc(OS(=O)(=O)[N-]C(=O)Nc2nc(C)cc(OC)n2)c1.[Na+]	1.64 µM	5.78	> 100 mg/L	> 100 mg/L
CCOC(=O)c1ccccc1OS(=O)(=O)[N-]C(=O)Nc1nc(C)cc(Cl)n1.[Na+]	0.0371 µM	7.43	> 100 mg/L	> 100 mg/L
COc1cc(Cl)nc(NC(=O)[N-]S(=O)(=O)Oc2ccccc2C(=O)OCC(F)(F)F)n1.[Na+]	0.265 µM	6.57	> 100 mg/L	> 100 mg/L
Cc1cc(Cl)nc(NC(=O)[N-]S(=O)(=O)Oc2ccccc2[N+](=O)[O-])n1.[Na+]	0.103 µM	6.99	> 100 mg/L	40 mg/L
COc1cc(Cl)nc(NC(=O)[N-]S(=O)(=O)Oc2ccc([N+](=O)[O-])cc2)n1.[Na+]	28.1 µM	4.55	> 100 mg/L	> 100 mg/L
CCOC(=O)c1ccccc1OS(=O)(=O)[N-]C(=O)Nc1nc(C)cc(OC)n1.[Na+]	0.0071 µM	8.16	25 mg/L	10 mg/L
COc1cc(I)nc(NC(=O)[N-]S(=O)(=O)Oc2ccccc2OCCCl)n1.[Na+]	0.068 µM	7.16	100 mg/L	10 mg/L
CCCOC(=O)c1ccccc1OS(=O)(=O)[N-]C(=O)Nc1nc(OC)cc(OC)n1.[Na+]	0.26 µM	6.59	> 100 mg/L	> 100 mg/L
Cc1cc(Cl)nc(NC(=O)[N-]S(=O)(=O)Oc2ccc([N+](=O)[O-])cc2)n1.[Na+]	> 50 µM	–	> 100 mg/L	> 100 mg/L
COc1cc(Cl)nc(NC(=O)[N-]S(=O)(=O)Oc2ccccc2C(=O)Oc2ccccc2)n1.[Na+]	25.4 µM	4.58	> 100 mg/L	> 100 mg/L
CCCOC(=O)c1ccccc1OS(=O)(=O)[N-]C(=O)Nc1nc(I)cc(OC)n1.[Na+]	0.862 µM	6.06	> 100 mg/L	> 100 mg/L
Cc1cc(Cl)nc(NC(=O)[N-]S(=O)(=O)Oc2ccccc2C(=O)OCCCl)n1.[Na+]	0.761 µM	6.09	> 100 mg/L	> 100 mg/L
COc1cc(I)nc(NC(=O)[N-]S(=O)(=O)Oc2ccccc2[N+](=O)[O-])n1.[Na+]	0.523 µM	6.28	> 100 mg/L	40 mg/L
CCCOC(=O)c1ccccc1OS(=O)(=O)[N-]C(=O)Nc1nc(Cl)cc(OC)n1.[Na+]	0.235 µM	6.62	> 100 mg/L	> 100 mg/L
COc1cc(Cl)nc(NC(=O)[N-]S(=O)(=O)Oc2ccccc2OCCCl)n1.[Na+]	0.087 µM	7.06	> 100 mg/L	> 100 mg/L
COc1cc(I)nc(NC(=O)[N-]S(=O)(=O)Oc2ccccc2OCCI)n1.[Na+]	0.637 µM	6.18	> 100 mg/L	20 mg/L
COc1cc(C)nc(NC(=O)[N-]S(=O)(=O)Oc2ccccc2OCCCl)n1.[Na+]	0.078 µM	7.1	25 mg/L	10 mg/L
CCOC(=O)c1ccccc1OS(=O)(=O)[N-]C(=O)Nc1nc(Br)cc(OC)n1.[Na+]	0.0108 µM	7.96	> 100 mg/L	> 100 mg/L
COc1cc(OC)nc(NC(=O)[N-]S(=O)(=O)Oc2ccccc2C(=O)Oc2ccccc2)n1.[Na+]	5.86 µM	5.23	> 100 mg/L	> 100 mg/L
COc1cc(Cl)nc(NC(=O)[N-]S(=O)(=O)Oc2ccccc2[N+](=O)[O-])n1.[Na+]	0.265 µM	6.58	> 100 mg/L	> 100 mg/L
CCOC(=O)c1cccc(OS(=O)(=O)[N-]C(=O)Nc2nc(C)cc(Cl)n2)c1.[Na+]	> 50 µM	–	> 100 mg/L	> 100 mg/L

Source: ChEMBL document CHEMBL4382231, “Chemical preparation, biological evaluation and 3D-QSAR of ethoxysulfuron derivatives as novel antifungal agents targeting acetohydroxyacid synthase” (Eur J Med Chem, 2019)
